Data as given in patent US10577363B2, “Substituted piperidine compounds” (EPIZYME, INC., priority 2014, dated 2020).

Assays:
SMYD3 [1] = target: T1, SMYD3 (Homo sapiens (Human), UniProt Q9H7B4); assay: SMYD3 biochemical assay (SPA, 3H-SAM methylation of MEKK2 protein substrate); conditions: read-out: SMYD3 Biochem IC50 (μM)*
How it was run: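 Enzyme: untagged full-length human SMYD3 from E. coli; substrate GST-tagged MEKK2 from insect cells. Buffer 25 mM Tris-Cl pH 8.0, 1 mM TCEP, 0.005% BSG/Tween 20. 30 min compound–enzyme preincubation at RT; 3H-SAM/MEKK2 start; stop with cold SAM (100 uM final); SPA readout in cpm.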

SMYD3 [2] = target: T1, SMYD3; assay: SMYD3 cell assay (Trimethyl-MEKK2 In-Cell Western in 293T/17 cells); assay type: cell-based; conditions: read-out: SMYD3 Cell IC50 (μM)*
How it was run: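 In-Cell Western readout: methanol-fixed cells stained for trimethyl-MEKK2 and flag tag, ratio per well normalized to DMSO and background controls.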

T1 sequence (Q9H7B4 whole entry): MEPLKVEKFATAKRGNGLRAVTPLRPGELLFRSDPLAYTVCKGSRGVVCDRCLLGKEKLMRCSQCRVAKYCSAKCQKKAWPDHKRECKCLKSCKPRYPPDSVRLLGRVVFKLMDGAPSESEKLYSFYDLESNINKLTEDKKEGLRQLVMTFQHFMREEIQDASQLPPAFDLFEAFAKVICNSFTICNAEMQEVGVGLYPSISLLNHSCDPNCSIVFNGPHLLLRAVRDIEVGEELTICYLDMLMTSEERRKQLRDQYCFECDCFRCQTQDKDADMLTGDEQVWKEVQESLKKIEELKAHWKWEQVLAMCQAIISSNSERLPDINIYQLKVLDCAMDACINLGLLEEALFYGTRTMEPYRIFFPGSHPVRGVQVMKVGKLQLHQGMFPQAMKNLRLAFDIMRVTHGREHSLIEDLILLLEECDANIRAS

SMILES	IC50 (SMYD3 [1])	IC50 (SMYD3 [2])	IC50 (SMYD3 [2]; 293T/17 cells)
CC1CC(NC(=O)c2cc(C3CC3)on2)CCN1C(=O)Cc1c[nH]cn1 (centres unmarked) [compound 227, N-(1-(2-(1H-imidazol-4-yl)acetyl)-2-methylpiperidin-4-yl)-5-cyclopropylisoxazole-3-carboxamide]	> 10 µM	> 40 µM	
C[C@H]1C[C@@H](NC(=O)c2cc(C3CC3)on2)CCN1S(=O)(=O)CCc1ccccc1 [compound 235, 5-cyclopropyl-N-((2S,4S)-2-methyl-1-(phenethylsulfonyl)piperidin-4-yl)isoxazole-3-carboxamide]	1.33 µM	3.3 µM	
CC1CN(C(=O)[C@H]2CC[C@H](N)CC2)C(C)CC1NC(=O)c1cc(C2CC2)on1 (some centres unmarked) [compound 263, N-(1-((1r,4r)-4-aminocyclohexane-1-carbonyl)-2,5-dimethylpiperidin-4-yl)-5-cyclopropylisoxazole-3-carboxamide]	0.0322 µM		0.569 µM
NCCCC(=O)N1CC2CCC1CC2NC(=O)c1cc(C2CC2)on1 (centres unmarked) [compound 265, N-(2-(4-aminobutanoyl)-2-azabicyclo[2.2.2]octan-5-yl)-5-cyclopropylisoxazole-3-carboxamide]	5.45 µM		> 40 µM
C[C@H]1C[C@@H](NC(=O)c2cc(C3CC3)on2)CCN1C(=O)CC(CN)Cc1ccccc1 (stereo partly drawn) [compound 269, N-((2S,4S)-1-(4-amino-3-benzylbutanoyl)-2-methylpiperidin-4-yl)-5-cyclopropylisoxazole-3-carboxamide]	> 10 µM		> 40 µM
C[C@@H]1C[C@H](NC(=O)c2cc(C3CC3)on2)CCN1C(=O)CC(CN)Cc1ccccc1 (stereo partly drawn) [compound 272, N-((2R,4R)-1-(4-amino-3-benzylbutanoyl)-2-methylpiperidin-4-yl)-5-cyclopropylisoxazole-3-carboxamide]	> 10 µM		> 40 µM
C[C@@H]1C[C@H](NC(=O)c2cc(C3CC3)on2)CCN1S(=O)(=O)c1ccccn1 [compound 293, 5-cyclopropyl-N-((2R,4R)-2-methyl-1-(pyridin-2-ylsulfonyl)piperidin-4-yl)isoxazole-3-carboxamide]	4.84 µM		7.19 µM
C[C@@H]1C[C@H](NC(=O)c2cc(C3CC3)on2)CCN1S(=O)(=O)CCc1ccccc1 [compound 295, 5-cyclopropyl-N-((2R,4R)-2-methyl-1-(phenethylsulfonyl)piperidin-4-yl)isoxazole-3-carboxamide]	> 10 µM		> 40 µM
N[C@H]1CC[C@H](C(=O)N2CC[C@@H](NC(=O)c3cc(C4CC4)on3)C[C@H]2Cc2ccccc2)CC1 [compound 309, N-((2R,4R)-1-((1r,4R)-4-aminocyclohexane-1-carbonyl)-2-benzylpiperidin-4-yl)-5-cyclopropylisoxazole-3-carboxamide]	1.18 µM		16.8 µM
C[C@@H]1C[C@H](NC(=O)c2cc(C3CC3)on2)CCN1C(=O)CC(CN)c1ccccc1 (stereo partly drawn) [compound 314, N-((2R,4R)-1-(4-amino-3-phenylbutanoyl)-2-methylpiperidin-4-yl)-5-cyclopropylisoxazole-3-carboxamide]	4.73 µM		> 40 µM
CCCCS(=O)(=O)N1CC[C@H](NC(=O)c2cc(C3CC3)on2)C[C@@H]1C [compound 316, N-((2S,4S)-1-(butylsulfonyl)-2-methylpiperidin-4-yl)-5-cyclopropylisoxazole-3-carboxamide]	0.237 µM		0.782 µM
C[C@H]1C[C@@H](NC(=O)c2cc(C3CC3)on2)CCN1S(=O)(=O)c1cccnc1 [compound 317, 5-cyclopropyl-N-((2S,4S)-2-methyl-1-(pyridin-3-ylsulfonyl)piperidin-4-yl)isoxazole-3-carboxamide]	0.686 µM		4.11 µM
C[C@H]1C[C@@H](NC(=O)c2cc(C3CC3)on2)CCN1S(=O)(=O)Cc1cccnc1 [compound 319, 5-cyclopropyl-N-((2S,4S)-2-methyl-1-((pyridin-3-ylmethyl)sulfonyl)piperidin-4-yl)isoxazole-3-carboxamide]	1.43 µM		4.53 µM
C[C@@H]1C[C@H](NC(=O)c2cc(C3CC3)on2)CCN1S(=O)(=O)N(C)C [compound 328, 5-cyclopropyl-N-((2R,4R)-1-(N,N-dimethylsulfamoyl)-2-methylpiperidin-4-yl)isoxazole-3-carboxamide]	6.91 µM		15.2 µM
CC(=O)Nc1ccc(S(=O)(=O)N2CC[C@@H](NC(=O)c3cc(C4CC4)on3)C[C@H]2C)cc1 [compound 330, N-((2R,4R)-1-((4-acetamidophenyl)sulfonyl)-2-methylpiperidin-4-yl)-5-cyclopropylisoxazole-3-carboxamide]	> 10 µM		29.3 µM
NCCCC(=O)N1CC[C@@H](NC(=O)c2cc(C3CC3)on2)C[C@@H]1Cc1ccccc1 [compound 334, N-((2S,4R)-1-(4-aminobutanoyl)-2-benzylpiperidin-4-yl)-5-cyclopropylisoxazole-3-carboxamide]	1.9 µM		33 µM

Results, then the compound that gave them:

IC50 (SMYD3 [1])	IC50 (SMYD3 [2])	IC50 (SMYD3 [2]; 293T/17 cells)	SMILES
> 10 µM	14.1 µM		C[C@H]1C[C@H](NC(=O)c2cc(C3CC3)on2)CCN1S(=O)(=O)Cc1ccccc1 [compound 244, N-((2S,4R)-1-(benzylsulfonyl)-2-methylpiperidin-4-yl)-5-cyclopropylisoxazole-3-carboxamide]
> 10 µM		> 40 µM	C[C@@H]1C[C@@H](NC(=O)c2cc(C3CC3)on2)CCN1C(=O)CC(CN)Cc1ccccc1 (stereo partly drawn) [compound 270, N-((2R,4S)-1-(4-amino-3-benzylbutanoyl)-2-methylpiperidin-4-yl)-5-cyclopropylisoxazole-3-carboxamide]
> 10 µM		> 40 µM	C[C@H]1C[C@H](NC(=O)c2cc(C3CC3)on2)CCN1C(=O)CC(CN)Cc1ccccc1 (stereo partly drawn) [compound 271, N-((2S,4R)-1-(4-amino-3-benzylbutanoyl)-2-methylpiperidin-4-yl)-5-cyclopropylisoxazole-3-carboxamide]
0.433 µM		1.42 µM	C[C@H]1C[C@@H](NC(=O)c2cc(C3CC3)on2)CCN1S(=O)(=O)Cc1ccccc1 [compound 274, N-((2S,4S)-1-(benzylsulfonyl)-2-methylpiperidin-4-yl)-5-cyclopropylisoxazole-3-carboxamide]
0.154 µM		0.676 µM	C[C@H]1C[C@@H](NC(=O)c2cc(C3CC3)on2)CCN1S(=O)(=O)c1ccccn1 [compound 275, 5-cyclopropyl-N-((2S,4S)-2-methyl-1-(pyridin-2-ylsulfonyl)piperidin-4-yl)isoxazole-3-carboxamide]
> 10 µM		> 40 µM	C[C@@H]1C[C@@H](NC(=O)c2cc(C3CC3)on2)CCN1S(=O)(=O)c1cn(C)cn1 [compound 283, 5-cyclopropyl-N-((2R,4S)-2-methyl-1-((1-methyl-1H-imidazol-4-yl)sulfonyl)piperidin-4-yl)isoxazole-3-carboxamide]
> 10 µM		10.7 µM	C[C@H]1C[C@H](NC(=O)c2cc(C3CC3)on2)CCN1S(=O)(=O)c1ccccn1 [compound 286, 5-cyclopropyl-N-((2S,4R)-2-methyl-1-(pyridin-2-ylsulfonyl)piperidin-4-yl)isoxazole-3-carboxamide]
> 10 µM		> 40 µM	C[C@H]1C[C@H](NC(=O)c2cc(C3CC3)on2)CCN1S(=O)(=O)c1cn(C)cn1 [compound 291, 5-cyclopropyl-N-((2S,4R)-2-methyl-1-((1-methyl-1H-imidazol-4-yl)sulfonyl)piperidin-4-yl)isoxazole-3-carboxamide]
> 10 µM		> 40 µM	C[C@@H]1C[C@H](NC(=O)c2cc(C3CC3)on2)CCN1S(=O)(=O)c1cn(C)cn1 [compound 294, 5-cyclopropyl-N-((2R,4R)-2-methyl-1-((1-methyl-1H-imidazol-4-yl)sulfonyl)piperidin-4-yl)isoxazole-3-carboxamide]
0.733 µM		8.1 µM	N[C@H]1CC[C@H](C(=O)N2CC[C@H](NC(=O)c3cc(C4CC4)on3)C[C@@H]2Cc2ccccc2)CC1 [compound 310, N-((2S,4S)-1-((1r,4S)-4-aminocyclohexane-1-carbonyl)-2-benzylpiperidin-4-yl)-5-cyclopropylisoxazole-3-carboxamide]
1.33 µM		4.84 µM	C[C@H]1C[C@@H](NC(=O)c2cc(C3CC3)on2)CCN1S(=O)(=O)N(C)C [compound 315, 5-cyclopropyl-N-((2S,4S)-1-(N,N-dimethylsulfamoyl)-2-methylpiperidin-4-yl)isoxazole-3-carboxamide]
6.42 µM		20 µM	C[C@@H]1C[C@H](NC(=O)c2cc(C3CC3)on2)CCN1S(=O)(=O)Cc1cccnc1 [compound 329, 5-cyclopropyl-N-((2R,4R)-2-methyl-1-((pyridin-3-ylmethyl)sulfonyl)piperidin-4-yl)isoxazole-3-carboxamide]
0.147 µM		2.31 µM	CCOC(=O)C1CN(S(=O)(=O)CCCN)CCC1NC(=O)c1cc(C2CC2)on1 (centres unmarked) [compound 331, ethyl 1-((3-aminopropyl)sulfonyl)-4-(5-cyclopropylisoxazole-3-carboxamido)piperidine-3-carboxylate]
> 10 µM		> 40 µM	NCCCC(=O)N1CC[C@@H](NC(=O)c2cc(C3CC3)on2)C[C@H]1Cc1ccccc1 [compound 333, N-((2R,4R)-1-(4-aminobutanoyl)-2-benzylpiperidin-4-yl)-5-cyclopropylisoxazole-3-carboxamide]
1.12 µM		19.6 µM	NCCCC(=O)N1CC[C@H](NC(=O)c2cc(C3CC3)on2)C[C@H]1Cc1ccccc1 [compound 335, N-((2R,4S)-1-(4-aminobutanoyl)-2-benzylpiperidin-4-yl)-5-cyclopropylisoxazole-3-carboxamide]
